Laboratory results reported in patent US8329913B2, “Carbazole derivative, solvate thereof, or pharmaceutically acceptable salt thereof” (Zeria Pharmaceutical Co., Ltd., priority 2004, dated 2012).

Target: T1, human PPARα (Homo sapiens, UniProt Q07869)
T1 construct: 1.6 kb of DNA fragment including human PPARα gene was collected from the gel; expressed in transfected cells; host or cells: CV-1 cells, transient transfection with pCI-hPPARa, pCI-hRXRa and the reporter pGL3-PPRE3-TK
T1 sequence (Q07869 1-468): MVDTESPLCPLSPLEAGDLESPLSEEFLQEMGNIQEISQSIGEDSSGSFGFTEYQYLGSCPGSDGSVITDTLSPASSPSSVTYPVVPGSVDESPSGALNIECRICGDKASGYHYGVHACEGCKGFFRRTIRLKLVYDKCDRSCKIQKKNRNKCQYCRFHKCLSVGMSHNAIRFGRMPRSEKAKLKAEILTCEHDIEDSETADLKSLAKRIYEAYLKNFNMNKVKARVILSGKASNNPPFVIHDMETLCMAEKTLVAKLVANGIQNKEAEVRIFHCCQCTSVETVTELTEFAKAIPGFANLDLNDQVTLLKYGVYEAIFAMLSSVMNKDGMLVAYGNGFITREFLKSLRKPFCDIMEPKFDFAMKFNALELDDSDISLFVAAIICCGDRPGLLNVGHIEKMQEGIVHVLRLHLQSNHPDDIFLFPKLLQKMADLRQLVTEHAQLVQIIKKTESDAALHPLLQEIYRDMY
T1 sequence (P19793 1-462 partner): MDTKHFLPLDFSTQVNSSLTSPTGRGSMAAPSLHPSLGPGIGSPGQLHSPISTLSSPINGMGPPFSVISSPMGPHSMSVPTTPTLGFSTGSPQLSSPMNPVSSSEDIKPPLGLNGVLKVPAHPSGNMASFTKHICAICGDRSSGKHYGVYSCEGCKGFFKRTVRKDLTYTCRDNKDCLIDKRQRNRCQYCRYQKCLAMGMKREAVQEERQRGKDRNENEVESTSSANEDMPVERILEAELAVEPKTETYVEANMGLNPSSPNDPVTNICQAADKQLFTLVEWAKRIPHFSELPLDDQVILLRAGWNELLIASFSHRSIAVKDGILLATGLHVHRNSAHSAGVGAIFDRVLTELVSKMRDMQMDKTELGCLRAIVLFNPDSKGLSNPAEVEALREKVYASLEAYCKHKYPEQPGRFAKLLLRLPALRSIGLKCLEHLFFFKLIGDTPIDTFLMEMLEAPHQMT
Experiment: Human PPARα agonist assay (luciferase reporter in transfected CV-1 cells)
Type: cell-based
Conditions: at 1 μM test compound alone; 100% = 1 μM stimulant (GW7647) only; CV-1 cells expressing human PPARα and RXRα
Experimental: CV-1 cells (96 well plate), where human PPARα and RXRα has expressed in the transient transfection of reporter plasmid (see reference 6a) were washed once with PBS (100 μL/well), and then supplemented with 100 μL/well of DMEM medium including 10% of fetal bovine serum to which test compounds at final concentrations of 10 nM, 30 nM, 100 nM, 300 nM, 1 μM, and 3 μM, as well as GW7647 (not limited to GW7647 shown as an example, but may be any PPARα agonist) at a final concentration of 1 nM as a stimulant were added, and incubated in a 5% CO2 incubator at 37° C. for 24 hours. After removing the medium, the CV-1 cells were washed once with PBS (100 μL/well), and supplemented with 60 μL/well of 1× Passive Lysis Buffer (manufactured by Promega Corporation). The CV-1 cells were incubated at room temperature for 30 minutes, stirred, and then by using Dual-Luciferase Reporter Assay System (manufactured by Promega Corporation), luciferase activities of firefly and renilla were measured using 1420 ARVO Multilabel Counter (manufactured by Wallac Oy). Also, the same experiments as that described above were respectively carried out for the cases where only the above-mentioned stimulant (10 nM, 100 nM, 1 μM) were used, where only the above-mentioned test compounds were used, or where neither was used (nonsupplemented), and luciferase activities of firefly and renilla were measured. Values corrected by dividing the firefly luciferase activities by the renilla luciferase activities were calculated as specific activities and used for evaluations. […]
Also, human PPARα agonist activities of the test compounds were evaluated by using a percentage (activity) where the specific activity when nonsupplemented is regarded as 0% and the specific activity in case only 1 μM stimulant was added is regarded as 100%, from the specific activity in case only the test compound is used.
CV-1 cells were cultured in DMEM medium (manufactured by Invitrogen Corporation) including 10% fetal bovine serum (manufactured by Dainippon Pharmaceutical Co., Ltd.) in 225T-Flask (manufactured by Corning Costar). The cells were detached by 0.5 g/L trypsin-0.2 g/L EDTA (ethylene diamine tetra-acetic acid) (manufactured by Invitrogen Corporation), and then suspended in the DMEM medium including 10% fetal bovine serum to a cell concentration of 2×10^5 cells/mL. Thereafter, the cells were seeded into 96 well plate at 2×10^4 cells/0.1 mL/well, incubated in the CO2 incubator at 37° C. overnight, and then the plasmids prepared by the above-mentioned reference 2a, reference 3a, and reference 4a were transfected into cells by using a lipofectamine reagent (manufactured by Invitrogen Corporation) according to the attached manual.
Namely, after CV-1 cells were cultured overnight, the cells were washed with PBS (100 μL/well). Thereafter the cells were incubated for 5 hours at 37° C./5% CO2 in the MEM medium (manufactured by Invitrogen Corporation) including 430 ng/mL of human PPARα expression plasmid (pCI-hPPARa) prepared by the reference 2a, 430 ng/mL of human RXRα expression plasmid (pCI-hRXRa) prepared by the reference 3a, and 140 ng/mL of the reporter plasmid (pGL3-PPRE3-TK) prepared by the reference 4a, 10 ng/mL of phRL-TK vector (manufactured by Promega Corporation) and 2 μL/mL of lipofectamine.

| Compound | Human PPARα agonist activities, Activity % (at 1 μM) |
| --- | --- |
| COc1cc(Cn2c3ccccc3c3c(O[C@H](C)C(=O)[O-])cccc32)ccc1OCc1nc(-c2ccccc2)oc1C.[Na+] [Example 43, sodium (R)-2-{9-[3-methoxy-4-((5-methyl-2-phenyl-oxazole-4-yl)methoxy)-benzyl]-9H-carbazole-4-yloxy}propionate] | 35% |
| COc1cc(Cn2c3ccccc3c3c(OCCC(C)C(=O)O)cccc32)ccc1OCc1nc(-c2ccccc2)oc1C (racemic) [Example 27, (±)-4-{9-[3-methoxy-4-((5-methyl-2-phenyl-oxazole-4-yl)methoxy)-benzyl]-9H-carbazole-4-yloxy}-2-methyl-butyric acid] | 23% |
